Experiment: Dissociation constant, pKa of the compound
Assay type: physicochemical

| pKa | Structure (SMILES) |
| --- | --- |
| 6.86 | N#CCCCOc1ccc(-c2ccc(-c3ccccc3Cl)n2Cc2cccc(N)n2)cc1 |
| 6.86 | CCCCCOc1ccc(-c2ccc(-c3ccccc3Cl)n2Cc2ccc(NCCO)c(N)n2)cc1 |
| 6.86 | CCCCCOc1ccc(-c2ccc(-c3ccccc3Cl)n2Cc2ccc(NCCCO)c(N)n2)cc1 |
| 6.86 | CCCOc1ccc(-c2ccc(-c3ccccc3Cl)n2Cc2cccc(N)n2)cc1 |
| 6.86 | CCCCOc1ccc(-c2ccc(-c3ccccc3Cl)n2Cc2cccc(N)n2)cc1 |
| 6.86 | Nc1nc(Cn2c(-c3ccc(Oc4cncnc4)cc3)ccc2-c2ccccc2Cl)ccc1OCCO |
| 6.86 | Nc1nc(Cn2c(-c3ccc(Oc4cncnc4)cc3)ccc2-c2ccccc2Cl)ccc1NCCO |
| 6.86 | CCCCCCOc1ccc(-c2ccc(-c3ccccc3Cl)n2Cc2cccc(N)n2)cc1 |
| 6.86 | COc1ccc(-c2ccc(-c3ccccc3Cl)n2Cc2cccc(N)n2)cc1 |
| 6.86 | CCCCCOc1ccc(-c2ccc(-c3ccccc3Cl)n2Cc2cccc(N)n2)cc1 |
| 6.86 | CCCCCOc1ccc(-c2ccc(-c3ccccc3Cl)n2Cc2ccc(OCCO)c(N)n2)cc1 |
| 6.86 | CCCCCOc1ccc(-c2ccc(-c3ccccc3Cl)n2Cc2ccc(OCCCO)c(N)n2)cc1 |

More lines, now with the values behind:

| Structure (SMILES) | pKa |
| --- | --- |
| CCNC(=O)c1ccc(-c2ccc(-c3ccccc3)n2Cc2cccc(N)n2)cc1 | 6.86 |
| CCCNC(=O)c1ccc(-c2ccc(-c3ccccc3)n2Cc2cccc(N)n2)cc1 | 6.86 |
| CCCCNC(=O)c1ccc(-c2ccc(-c3ccccc3)n2Cc2cccc(N)n2)cc1 | 6.86 |
| Nc1cccc(Cn2c(-c3ccc(Oc4ccncc4)cc3)ccc2-c2ccccc2Cl)n1 | 6.86 |
| Nc1cccc(Cn2c(-c3ccc(Oc4cccnc4)cc3)ccc2-c2ccccc2Cl)n1 | 6.86 |
| Nc1cccc(Cn2c(-c3ccc(Oc4ccccc4)cc3)ccc2-c2ccccc2Cl)n1 | 6.86 |
| Nc1cccc(Cn2c(-c3ccc(Oc4ccccn4)cc3)ccc2-c2ccccc2Cl)n1 | 6.86 |
| Nc1cccc(Cn2c(-c3ccc(Oc4cncnc4)cc3)ccc2-c2ccccc2Cl)n1 | 6.86 |
| Nc1cccc(Cn2c(-c3ccc(Oc4cnccn4)cc3)ccc2-c2ccccc2Cl)n1 | 6.86 |
| C=CCNC(=O)c1ccc(-c2ccc(-c3ccccc3)n2Cc2cccc(N)n2)cc1 | 6.86 |
| CC(C)NC(=O)c1ccc(-c2ccc(-c3ccccc3)n2Cc2cccc(N)n2)cc1 | 6.86 |
| Nc1cccc(Cn2c(-c3ccccc3)ccc2-c2ccccc2)n1 | 6.86 |
| Nc1cccc(Cn2c(-c3ccc(Oc4cccnn4)cc3)ccc2-c2ccccc2Cl)n1 | 6.86 |
| Nc1cccc(Cn2c(-c3ccc(Oc4cccs4)cc3)ccc2-c2ccccc2Cl)n1 | 6.86 |
| Nc1cccc(Cn2c(-c3ccccc3)ccc2-c2ccc(C(=O)NC3CC3)cc2)n1 | 6.86 |
| Nc1cccc(Cn2c(-c3ccccc3)ccc2-c2ccc(C(=O)NC3CCC3)cc2)n1 | 6.86 |
| Nc1cccc(Cn2c(-c3ccc(Nc4cncnc4)cc3)ccc2-c2ccccc2Cl)n1 | 6.86 |

Reference: ChEMBL document CHEMBL1156953, “Novel pyrrolyl 2-aminopyridines as potent and selective human beta-secretase (BACE1) inhibitors” (Bioorg Med Chem Lett, 2010)
